Data as given in patent EP4578939A1, “MYC[…]. BASED ON VARIOUS CARBON-NITROGEN METABOLIC […], METHOD FOR ISOLATING SAME, AND USE THEREOF” (Peng, Guanghao, priority 2022, dated 2024).

Legend:
Type in all cases: cell-based
[1] = tested on: Mycobacterium sp. with the deposit number CGMCC No.21272; assay: BIOLOG chemically sensitive experiments; conditions: strain CGMCC No.21272 (YT)
[2] = tested on: Mycobacterium sp. with deposit number of CGMCC No.21273; assay: BIOLOG chemically sensitive experiments; conditions: strain CGMCC No.21273 (JD)
[3] = tested on: Mycobacterium sp. with deposit number of CGMCC No.21273; assay: BIOLOG GEN III growth experiments; conditions: growth on the substance; strain CGMCC No.21273 (JD)
[4] = tested on: Mycobacterium sp. with the deposit number CGMCC No.21272; assay: BIOLOG GEN III growth experiments; conditions: growth on the substance; strain CGMCC No.21272 (YT)
[5] = tested on: Mycobacterium sp. with deposit number of CGMCC No.21273; assay: antibiotic susceptibility experiment; conditions: strain CGMCC No.21273 (JD)
[6] = tested on: Mycobacterium sp. with deposit number of CGMCC No.21272; assay: antibiotic susceptibility experiment; conditions: strain CGMCC No.21272 (YT)

In the case of `CO[C@H]1/C=C/O[C@@]2(C)Oc3c(C)c([O-])c4c(O)c(cc(O)c4c3C2=O)NC(=O)/C(C)=C\C=C\[C@H](C)[C@H](O)[C@@H](C)[C@@H](O)[C@@H](C)[C@H](OC(C)=O)[C@@H]1C.[Na+]` [Rifamycin SV], the “BIOLOG GEN II (chemically sensitive experiments) Results” value [1] is reported as “+” and the “BIOLOG GEN II (chemically sensitive experiments) Results” value [2] is reported as “+”.

For `OC[C@H]1O[C@H](O[C@H]2[C@H](O)[C@@H](O)[C@H](O)O[C@@H]2CO)[C@H](O)[C@@H](O)[C@@H]1O` [D-maltose], the “BIOLOG GEN III (growth experiments) Results” value (from here on “BIOLOG GEN III”) [3] was “-” and the “BIOLOG GEN III” value [4] was “-”.

`CO[C@@H]1O[C@H](CO)[C@@H](O)[C@H](O)[C@H]1O` [β-methyl-D-glucoside] was tested, and the “BIOLOG GEN III” value [3] was “-” and the “BIOLOG GEN III” value [4] was “-”.

With `O=C1CN(/N=C/c2ccc([N+](=O)[O-])o2)C(=O)N1` [Furantoin] the Susceptibility degree [5] was “R” and the Susceptibility degree [6] was “R”.

For `O=[Te]([O-])[O-].[K+].[K+]` [Potassium tellurite], the “BIOLOG GEN II (chemically sensitive experiments) Results” value [1] was “+” and the “BIOLOG GEN II (chemically sensitive experiments) Results” value [2] was “+”.

In the case of D-salicin, the “BIOLOG GEN III” value [3] is reported as “-” and the “BIOLOG GEN III” value [4] is reported as “-”.

For Romifloxacin, the Susceptibility degree [5] was “S” and the Susceptibility degree [6] was “S”.

For `OC[C@H]1O[C@H](OC[C@H]2O[C@H](O[C@]3(CO)O[C@H](CO)[C@@H](O)[C@@H]3O)[C@H](O)[C@@H](O)[C@@H]2O)[C@H](O)[C@@H](O)[C@H]1O` [D-raffinose], the “BIOLOG GEN III” value [3] was “-” and the “BIOLOG GEN III” value [4] was “-”.

`CC(O)C(=O)[O-].[Na+]` (stereo not drawn) [1 % Sodium lactate, Sodium lactate] was tested, and the “BIOLOG GEN II (chemically sensitive experiments) Results” value [1] was “+” and the “BIOLOG GEN II (chemically sensitive experiments) Results” value [2] was “+”.

`OC[C@H]1O[C@H](OCC2O[C@@H](O)[C@H](O)[C@@H](O)[C@@H]2O)[C@H](O)[C@@H](O)[C@H]1O` (stereo partly drawn) [D-melibiose] was tested, and the “BIOLOG GEN III” value [3] was “+” and the “BIOLOG GEN III” value [4] was “+”.

In the case of `O=C(O)C[C@@H](O)C(=O)O` [D-malic acid], the “BIOLOG GEN III” value [3] is reported as “-” and the “BIOLOG GEN III” value [4] is reported as “-”.

In the case of `OC[C@H]1O[C@H](O[C@H]2O[C@H](CO)[C@@H](O)[C@H](O)[C@H]2O)[C@H](O)[C@@H](O)[C@@H]1O` [D-trehalose], the “BIOLOG GEN III” value [3] is reported as “+” and the “BIOLOG GEN III” value [4] is reported as “+”.

With `[Cl-].[Na+]` [1%NaCl, NaCl] the “BIOLOG GEN II (chemically sensitive experiments) Results” value [1] was “+” and the “BIOLOG GEN II (chemically sensitive experiments) Results” value [2] was “+”.

For `CCC(O)C(=O)O` (stereo not drawn) [A-hydroxybutyr atic acid], the “BIOLOG GEN III” value [3] was “-” and the “BIOLOG GEN III” value [4] was “-”.

`O=C(O)CCC(=O)C(=O)O` [α-ketoglutarate] was tested, and the “BIOLOG GEN III” value [3] was “+” and the “BIOLOG GEN III” value [4] was “+”.

In the case of `CC(O)CC(=O)O` (racemic) [β-hydroxy-D,L-butyric acid], the “BIOLOG GEN III” value [3] is reported as “+” and the “BIOLOG GEN III” value [4] is reported as “+”.

In the case of `OC[C@H]1O[C@H](OC[C@H]2O[C@H](OC[C@H]3O[C@H](O[C@]4(CO)O[C@H](CO)[C@@H](O)[C@@H]4O)[C@H](O)[C@@H](O)[C@@H]3O)[C@H](O)[C@@H](O)[C@H]2O)[C@H](O)[C@@H](O)[C@H]1O` [Stachyose], the “BIOLOG GEN III” value [3] is reported as “-” and the “BIOLOG GEN III” value [4] is reported as “-”.

For `COc1cc(-c2ccc(-n3nc(-c4ccccc4)n[n+]3-c3ccccc3)c(OC)c2)ccc1-n1nc(-c2ccccc2)n[n+]1-c1ccccc1.[Cl-].[Cl-]` [Tetrazolium blue], the “BIOLOG GEN II (chemically sensitive experiments) Results” value [1] was “-” and the “BIOLOG GEN II (chemically sensitive experiments) Results” value [2] was “-”.

For `O=C(O)C[C@H](O)C(=O)O` [L-malic acid], the “BIOLOG GEN III” value [3] was “+” and the “BIOLOG GEN III” value [4] was “+”.

With `O=C[C@H](O)[C@@H](O)[C@H](O)[C@H](O)COP(=O)(O)O` [D-glucose-6-phosphoric acid] the “BIOLOG GEN III” value [3] was “-” and the “BIOLOG GEN III” value [4] was “-”.

In the case of Cotrimoxazole, the Susceptibility degree [5] is reported as “S” and the Susceptibility degree [6] is reported as “S”.

Tween 40 was tested, and the “BIOLOG GEN III” value [3] was “+” and the “BIOLOG GEN III” value [4] was “+”.

`OC[C@@H](O)C(O)[C@H](O)CO` [D-arabitol] was tested, and the “BIOLOG GEN III” value [3] was “-” and the “BIOLOG GEN III” value [4] was “-”.

With `[Cl-].[Li+]` [Lithium chloride] the “BIOLOG GEN II (chemically sensitive experiments) Results” value [1] was “+” and the “BIOLOG GEN II (chemically sensitive experiments) Results” value [2] was “+”.

For `O=C(CO)[C@@H](O)[C@H](O)[C@H](O)COP(=O)(O)O` [D-fructose-6-phosphoric acid], the “BIOLOG GEN III” value [3] was “+” and the “BIOLOG GEN III” value [4] was “+”.

For Penicillin, the Susceptibility degree [5] was “R” and the Susceptibility degree [6] was “R”.

For `C[C@H](O)C(=O)O` [L-lactic acid], the “BIOLOG GEN III” value [3] was “-” and the “BIOLOG GEN III” value [4] was “-”.
